Values of other authors as cited in patent US5929038A, “Pharmaceutical preparations which inhibit hepatitis B virus (HBV) replication” (Choongwae Pharmaceutical Co., Ltd., priority 1992, dated 1999).

What was measured:
[1] = test system: toxic Amanita mushrooms' poisoning; details: in vivo; cited from earlier work
[2] = test system: beagle dogs intoxicated by toxic mushroom extracts; details: cited from earlier work

OCC1=CC(O)C2C=COC(O[C@@H]3O[C@H](CO)[C@@H](O)[C@H](O)[C@H]3O)C12 (stereo partly drawn) [Aucubin, 1,4,5, 7α-tetrahydro-5-hydroxy-17-(hydroxymethyl)cyclopenta[c]pyran-1-yl-β-D-glucopyranose]
Detoxification activity [1]: detoxifies toxic Amanita mushrooms' poisoning | antidotal activity [2]: potent antidotal activity
